Measurements published in US7541371B2, “Method for treating a motor neuron disease” (Eisai R&D Management Co., Ltd., priority 2006, dated 2009).

Key:
serotonin 2 receptor = molecular target: T1, serotonin 2 receptor (Mus musculus, UniProt P35363); experiment: Mouse head twitch behavior test (tryptamine-induced); type: in vivo; details: tryptamine 30 mg/kg i.v.; test compound 15 min before; FIG. 7
T1 construct: known to induce mouse head twitch behavior through a serotonin 2 receptor; from tissue; host or cells: living mouse (in vivo behaviour test)
Protocol: The serotonin 2 receptor antagonist activity of test compounds was determined by a mouse head twitch behavior test. Tryptamine is a serotonin 2 receptor agonist and is known to induce mouse head twitch behavior through a serotonin 2 receptor. Accordingly, the serotonin 2 receptor antagonist activity of the test compounds can be evaluated based on the head twitch behavior by tryptamine. Tryptamine was administered intravenously to mice at 30 mg/kg, and the number of times of appearance of the head twitch within one min after the start of administration counted. The test compounds (compounds 1 and 4) were administered 15 min before the intravenous administration of tryptamine.
[^3H]8-hydroxy-dipropylaminotetralin is known to be used for the measurement of binding of test compounds to serotonin 1A receptors (European Journal of Pharmacology, 90, p. 151-153, 1983.). Further, [^3H]ketanserin is known to be used for the measurement of binding of test compounds to serotonin 2A receptors (Brian Dean and Wendy Hayes, Schizophrenia Research, 21, p. 133-139, 1996.). Furthermore, the test on mouse head twitch behavior with tryptamine is known to be used for the measurement of the serotonin 2 receptor antagonist activity of test compounds (Yamada J., et al., European Journal of Pharmacology, 140, p. 323-330, 1987; and Yamada J., et al., Neuropharmacology, 26, p. 49-53, 1987.).

rat motor neuron cells [1] = experiment: Inhibition of 5HT toxicity in rat motor neuron primary pure culture system; type: cell-based; details: survival three days after seeding; for Inhibition of 5HT toxicity (survival rate): antagonist added 5 to 10 min before 5HT, FIG. 2, FIG. 3
Protocol: (§1) Based on the results of cell measurement, the rat motor neuron cells were diluted with the culture solution to 1.1 to 1.2×10^4 cells/mL. Greiner 4-well dishes previously coated with poly-L-ornithine/laminin were seeded with the cell suspension at 90 μL/well with a 1 mL Pipetman. […] The initial viable cell count was measured three hr after the addition of serotonin (5HT). The viable cell count was again measured three days after the cell seeding, and the survival rate was calculated based on the initial viable cell count. The cell count measurement was carried out under a phase-contrast microscope using marks previously applied on the backside of the Greiner 4-well dish as a reference.
as §1

rat motor neuron cells [2] = experiment: Evaluation of toxicity of 5HT in rat motor neuron primary pure culture system; type: cell-based
Protocol: Rat motor neuron cells were subjected to pure culture in the presence of 30 ng/mL BDNF for three days, and toxicity of serotonin (5HT) was evaluated.
The rat motor neuron primary pure culture was carried out by a method which is modification of Nishijima et al. method (Nishijima C. et al., J Neurochem 76, 383-390(2001)) by incorporating a purification method and the like in the Nishijima et al. method.
A necessary number of Greiner-4-well dishes (10 mm i.d. wells) (Greiner bio-one) were provided, and 0.15 M sodium borate buffer (pH 8.3) containing 0.5 mg/mL poly-L-ornithine was added at 100 μL/well followed by standing at 4° C. overnight. Ornithine was removed by suction, the residue was washed three times with PBS(−), and L-15 (CO2) containing 10 μg/mL laminin (Gibco-BRL) was spread at 50 μL/well. […]
Wistar pregnant rats (fifteen days pregnant) (Tokyo Laboratory Animals Science Co., Ltd.) were etherized and were then sacrificed by cervical dislocation. […] One hr after the start of the culture, serotonin (serotonin creatinine sulfate complex, Sigma) or glutamate (Sigma) was added thereto, and, three hr after that, the initial viable cell count was measured. The viable cell count was again measured three days after the cell seeding, and the survival rate was calculated based on the initial viable cell count. […]

5-HT1A receptor [3] = molecular target: T2, 5-HT1A receptor (Sus scrofa, UniProt A0A4X1UTF5); details: receptor in G protein bound state (MgCl2 10 mM), 0.5 nM [3H]MPPF, swine hippocampus membrane; WO 2005/108389; read-out: High affinity; cited from earlier work
T2 construct: to a swine hippocampus membrane fraction; from tissue; host or cells: swine hippocampus
T2 sequence (A0A4X1UTF5 1-422): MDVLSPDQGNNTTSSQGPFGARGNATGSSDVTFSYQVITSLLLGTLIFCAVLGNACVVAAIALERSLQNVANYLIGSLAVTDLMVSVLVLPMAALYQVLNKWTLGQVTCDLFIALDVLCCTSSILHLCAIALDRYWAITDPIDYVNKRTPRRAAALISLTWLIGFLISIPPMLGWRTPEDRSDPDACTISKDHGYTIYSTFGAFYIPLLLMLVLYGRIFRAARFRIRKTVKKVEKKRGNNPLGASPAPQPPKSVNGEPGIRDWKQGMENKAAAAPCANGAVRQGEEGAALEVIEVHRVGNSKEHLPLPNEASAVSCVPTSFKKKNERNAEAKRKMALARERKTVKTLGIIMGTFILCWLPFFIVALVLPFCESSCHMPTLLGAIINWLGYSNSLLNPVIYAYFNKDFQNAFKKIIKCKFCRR

5-HT1A receptor [4] = molecular target: T2, 5-HT1A receptor; experiment: Test on affinity for serotonin 1A receptor ([3H]MPPF, hippocampus membrane fraction); type: binding, swine; details: low affinity IC50 divided by high affinity IC50; not more than 1 = no intrinsic activity, not less than 2 = intrinsic activity
Protocol: The affinity of test compounds for the 5-HT1A receptor was determined by an experiment for inhibition of a test compound against the binding of [^3H]-4-(2′-Methoxy)phenyl-1-[2′-(N-2″-pyridinyl)-p-fluorobenzamido]ethyl-piperazine (MPPF), selectively bound to the 5-HT1A receptor, to a swine hippocampus membrane fraction. The 5-HT1A receptor, which is a G protein binding receptor, is brought to a G protein bound state upon the addition of MgCl2, and is brought to a G protein nonbound state upon the addition of guanylylimidodiphosphate (Gpp(NH)p). It is generally known that a G protein receptor agonist has stronger affinity for the G protein bound receptor depending upon the level of the intrinsic activity. Accordingly, the affinity of a test compound for the receptor in a G protein nonbound state and the affinity of the test compound for the receptor in a G protein bound state were determined and compared with each other to estimate the level of the intrinsic activity of the test compound.
The greater this value, the higher the intrinsic activity.
Swine hippocampus was homogenized in an ice-cooled 50 mM Tris hydrochloride buffer (pH 7.4; hereinafter referred to as buffer A). The suspension was centrifuged at 40,000×g for 15 min. The resultant sediment was suspended in buffer A, and the suspension was then centrifuged at 40,000×g for 15 min. The same procedure was further repeated twice or three times. The finally obtained sediment was suspended in buffer A in an amount of about ten times larger than the wet weight of the swine hippocampus to prepare a membrane fraction which was then stored at −80° C. until use.
A mixture (0.5 mL) for incubation, containing an appropriate amount of the membrane fraction, a test compound in a desired concentration, MgCl2 (final concentration: 10 mM) or Gpp(NH)p (final concentration: 1 mM), [^3H]MPPF (final concentration: 0.5 nM), dimethyl sulfoxide (final concentration: 1% (v/v)), and 50 mM Tris hydrochloride buffer (pH 7.4), was provided. Upon the addition of the membrane fraction, a reaction started, and the mixture was incubated at 37° C. for 30 min. After the incubation, the incubated mixture was suction filtered through a glass filter with a cell harvester. After washing the glass filter with ice-cooled buffer A, the radioactivity bound to the receptor was measured with a liquid scintillation counter. The binding detected in the presence of 10 μM WAY-100,635. was regarded as nonspecific binding.

T1 sequence (P35363 whole entry): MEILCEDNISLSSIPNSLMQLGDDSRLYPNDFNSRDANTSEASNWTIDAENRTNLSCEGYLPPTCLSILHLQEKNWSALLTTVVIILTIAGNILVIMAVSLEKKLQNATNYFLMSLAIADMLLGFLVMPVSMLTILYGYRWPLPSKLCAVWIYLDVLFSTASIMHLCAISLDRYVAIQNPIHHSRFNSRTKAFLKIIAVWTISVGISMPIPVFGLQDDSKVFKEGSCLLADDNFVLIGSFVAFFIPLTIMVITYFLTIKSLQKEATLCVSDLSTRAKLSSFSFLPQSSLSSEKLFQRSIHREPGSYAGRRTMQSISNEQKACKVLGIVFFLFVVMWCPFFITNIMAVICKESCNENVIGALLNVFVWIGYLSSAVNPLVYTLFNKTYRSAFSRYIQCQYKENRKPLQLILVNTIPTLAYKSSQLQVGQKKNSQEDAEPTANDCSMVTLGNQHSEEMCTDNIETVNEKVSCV

## CNC(=O)Cc1ccc2ccn(C3CCN(CCc4ccccc4F)CC3)c2c1 [Compound 1, N-methyl-{1-[1-(2-fluorophenethyl)piperidin-4-yl]-1H-indol-6-yl}acetamide]
Serotonin 2 receptor
  Serotonin 2A receptor antagonist activity (head twitch by tryptamine): excellent serotonin 2A receptor antagonist activity
Rat motor neuron cells [1]; compound added 5 to 10 min before 5HT, FIG. 5, FIG. 6
  Concentration at which 5HT excitotoxicity is inhibited: not less than 0.1 nM

## NCCOB(c1ccccc1)c1ccccc1 [Compound 2-APB]
Rat motor neuron cells [1]
  Inhibition of 5HT toxicity (survival rate): inhibition of 5HT excitotoxicity

## NCCc1c[nH]c2ccc(O)cc12 [Compound 5HT, serotonin]
Rat motor neuron cells [2]; serum-free culture solution, FIG. 1B
  5HT toxicity compared with glutamate toxicity: comparable with glutamate toxicity
Rat motor neuron cells [2]; three days culture, 30 ng/mL BDNF, FIG. 1A
  Toxicity of 5HT (survival rate of motor neuron cells): showed toxicity in a concentration-dependent manner

## CNC(=O)c1ccc2ccn(C3CCN(CCc4c(OC)ccc5c4OC(C)(C)CC5=O)CC3)c2c1 [Compound 9, 1-{1-[2-(7-methoxy-2,2-dimethyl-4-oxochroman-8-yl)ethyl]piperidin-4-yl}-N-methyl-1H-indole-6-carboxamide]
5-HT1A receptor [3]
  IC50: 0.2 nM
5-HT1A receptor [4]
  L/H ratio: 0.8

## COc1ccc2c(c1CCN1CCC(n3ccc4ccc(C(N)=O)cc43)CC1)OC(C)(C)CC2=O [Compound 10, 1-{1-[2-(7-methoxy-2,2-dimethyl-4-oxochroman-8-yl)ethyl]piperidin-4-yl}-1H-indole-6-carboxamide]
5-HT1A receptor [3]
  IC50: 0.13 nM
5-HT1A receptor [4]
  L/H ratio: 0.8

## COc1cc2oc(C)nc2cc1CCN1CCC(n2ccc3ccc(C(N)=O)cc32)CC1 [Compound 11, 1-{1-[2-(6-methoxy-2-methylbenzoxazol-5-yl)ethyl]piperidin-4-yl}-1H-indole-6-carboxamide]
5-HT1A receptor [4]
  L/H ratio: 0.9

## COc1ccc2nc(C)oc2c1CCN1CCC(n2ccc3ccc(C(N)=O)cc32)CC1 [Compound 12, 1-{1-[2-(6-methoxy-2-methylbenzoxazol-7-yl)ethyl]piperidin-4-yl}-1H-indole-6-carboxamide]
5-HT1A receptor [4]
  L/H ratio: 0.7

## COc1cc2onc(C)c2cc1CCN1CCC(n2ccc3ccc(C(N)=O)cc32)CC1 [Compound 13, 1-{1-[2-(6-methoxy-3-methylbenzo[d]isoxazol-5-yl)ethyl]piperidin-4-yl}-1H-indole-6-carboxamide]
5-HT1A receptor [4]
  L/H ratio: 1.3

## COc1ccc2c(C)noc2c1CCN1CCC(n2ccc3ccc(C(N)=O)cc32)CC1 [Compound 14, 1-{1-[2-(6-methoxy-3-methylbenzo[d]isoxazol-7-yl)ethyl]piperidin-4-yl}-1H-indole-6-carboxamide]
5-HT1A receptor [4]
  L/H ratio: 1.6

## COc1cc2c(cc1CCN1CCC(n3ccc4ccc(C(N)=O)cc43)CC1)OCCO2 [Compound 15, 1-{1-[2-(7-methoxy-2,3-dihydrobenzo[1,4]dioxin-6-yl)ethyl]piperidin-4-yl}-1H-indole-6-carboxamide]
5-HT1A receptor [4]
  L/H ratio: 0.9

## OC(c1ccccc1)C1CCN(CCc2ccccc2)CC1 (stereo not shown) [MDL-11939]
Rat motor neuron cells [1]
  Inhibition of 5HT toxicity (survival rate): inhibited

## COc1ccccc1N1CCN(CCCCN2C(=O)c3ccccc3C2=O)CC1 [NAN-190]
Rat motor neuron cells [1]
  Inhibition of 5HT toxicity (survival rate): inhibited
